From PMC12298883, “Discovery of Cyclopentane-Based Phospholipids as Miltefosine Analogs with Superior Potency and Enhanced Selectivity Against Naegleria fowleri” (Pharmaceuticals, 2025)

Experiments:
[1] = Cytotoxicity assay for C6 cells (CellTiter-Blue); assay type: cell-based; details: rat, C6 glial cells, viability, mean ± SD
Protocol: (§1) A viability assay was performed to evaluate the inhibitory activity of the tested compounds by determining their IC50 values against N. fowleri, using miltefosine as a reference drug. To assess the selectivity of the tested compounds relative to miltefosine, cytotoxic values that reduced the viability of C6 glial cells by 50% were established.
(§2) N. fowleri Carter NF69 strain (ATCC 30215; American Type Culture Collection, Manassas, VA, USA) was used. Amoeba trophozoites were cultured and maintained in Nelson’s medium containing 5% foetal bovine serum (FBS; Gibco, Grand Island, NY, USA) and 1% penicillin/streptomycin (P/S; Gibco, Grand Island, NY, USA) at 37 °C [56]. C6 rat glial cells (C6 cells; ATCC CCL-107) were cultured in Dulbecco’s Modified Eagle’s Medium (DMEM; Gibco, Grand Island, NY, USA) supplemented with 10% FBS (Gibco, Grand Island, NY, USA) and 1% P/S (Gibco, Grand Island, NY, USA) at 37 °C in a humidified incubator under 5% CO2 atmosphere.
The potential cytotoxicity of tested compounds and miltefosine in C6 cells was analysed. The cells were seeded in a 96-well microplate (Thermo Fisher Scientific; 2 × 10^4 cells/well), respectively, and incubated overnight until 80% confluent. Serially diluted tested compounds and miltefosine were treated to the cells as described above. Morphological changes of the cells were observed by microscopic examination. Cell viability was determined using the CellTiter-Blue® Cell viability assay (Promega, […], USA). The cytotoxic concentrations 50 (CC50) of tested compounds and miltefosine were calculated using GraphPad Prism 9.1.0 software (GraphPad Software, San Diego, CA, USA). The […] (SI) was determined by the ratio between CC50 and IC50. Cells treated with 0.1% DMSO, which was confirmed not to alter the morphology of the cells by microscopic examination, were used as controls with 100% cell viability.

N. fowleri trophozoites = experiment: Anti-amoebic viability assay (CellTiter-Blue) with microscopic observation; assay type: cell-based, Naegleria fowleri; details: for Selectivity Index: CC50 of C6 glial cell divided by IC50 of inhibition of N. fowleri; for Relative Potency to Miltefosine: IC50 of miltefosine divided by IC50 of compound, N. fowleri; for IC50: Naegleria fowleri, 48 h, N. fowleri trophozoites, viability, mean ± SD of three assays, read-out: IC50 of Inhibition of N. fowleri; for fold increase in potency of anti-amoebic activity relative to corresponding cis-configured derivative: trans vs cis 1,2-restricted derivative with same alkyl chain
Protocol: as §1, §2
N. fowleri trophozoites (5 × 10^4 cells/well) were seeded in a 96-well microplate (Thermo Fisher Scientific, Waltham, MA, USA) in Nelson’s medium and incubated at 37 °C overnight. N. fowleri trophozoites were treated with 2-fold serial dilutions of tested compounds (from 0 to 200 µM) or miltefosine (150 µM) and incubated at 37 °C for 48 h. The viability of the amoebae was determined using the CellTiter-Blue® Cell viability assay (Promega, Madison, WI, USA). Inhibitory concentration 50 (IC50) and IC90 were calculated by the nonlinear regression method using GraphPad Prism 9.1.0 software (GraphPad Software, San Diego, CA, USA). Amoebae treated with 0.1% DMSO were used as a control, representing 100% cell viability. Morphological changes of the amoebae were observed microscopically.

Row | IC50 (N. fowleri trophozoites) | Structure (SMILES) | CC50 [1] | Selectivity Index (N. fowleri trophozoites) | Relative Potency to Miltefosine (N. fowleri trophozoites) | fold increase in potency of anti-amoebic activity relative to corresponding cis-configured derivative (N. fowleri trophozoites)
1 | 162 ± 1.02 µM | CCCCCCCCCCCCO[C@H]1CCC[C@H]1COP(=O)([O-])OCC[N+](C)(C)C [Compound 1a] | > 400 µM | >2.47 | ~0.90 fold | –
2 | 39.1 ± 0.6 µM | CCCCCCCCCCCCCO[C@H]1CCC[C@H]1COP(=O)([O-])OCC[N+](C)(C)C [Compound 1b] | 105 ± 4.76 µM | 2.69 | 3.74 fold | –
3 | 72.7 ± 2.32 µM | CCCCCCCCCCCCCCCCCCO[C@H]1CCC[C@H]1COP(=O)([O-])OCC[N+](C)(C)C [Compound 1c] | 158.4 ± 0.71 µM | 2.18 | 2.01 fold | –
4 | 43.6 ± 1.02 µM | CCCCCCCCCCCCCCCCCCCCO[C@H]1CCC[C@H]1COP(=O)([O-])OCC[N+](C)(C)C [Compound 1d] | 69.49 ± 0.16 µM | 1.59 | 3.4 fold | –
5 | 166 ± 68 µM | CCCCCCCCCCCCCCCCCCCCCCO[C@H]1CCC[C@H]1COP(=O)([O-])OCC[N+](C)(C)C [Compound 1e] | 114 ± 3.2 µM | 0.69 | 0.88 fold | –
6 | 23.7 ± 0.5 µM | CCCCCCCCCCCCCCCCCCO[C@@H]1CCC[C@H]1COP(=O)([O-])OCC[N+](C)(C)C [Compound 2b] | 69.71 ± 0.04 µM | 2.94 | 6.18 fold | 2.19- to 3.07 fold
7 | 19.6 ± 0.44 µM | CCCCCCCCCCCCCCCCCCCCO[C@@H]1CCC[C@H]1COP(=O)([O-])OCC[N+](C)(C)C [Compound 2c] | 43 ± 8.37 µM | 2.19 | 7.46 fold | 2.19- to 3.07 fold
8 | 55.6 ± 3.32 µM | CCCCCCCCCCCCCCCCCCCCCCO[C@@H]1CCC[C@H]1COP(=O)([O-])OCC[N+](C)(C)C [Compound 2d] | 71.03 ± 0.61 µM | 1.28 | 2.63 fold | 2.98 fold
9 | 279.4 ± 0.94 µM | CCCCCCCCCCCCOC[C@@H]1CCC[C@H]1OP(=O)([O-])OCC[N+](C)(C)C [Compound 3a] | > 400 µM | >1.43 | 0.52 fold | –
10 | 76.3 ± 1.56 µM | CCCCCCCCCCCCCCCCCCOC[C@@H]1CCC[C@H]1OP(=O)([O-])OCC[N+](C)(C)C [Compound 3c] | 58.5 ± 2.08 µM | 0.77 | 1.92 fold | –
